The source of these data is patent publication US20100093542A1, “HERBICIDE COMBINATION COMPRISING DIMETHOXYTRIAZINYL SUBSTITUTED DIFLUOROMETHANESULFONYLANILIDES” (BAYER CORPSCIENCE AG, priority 2008, published 2010).

Holding throughout (assay): Post-emergence action against weeds, greenhouse pot test, visual scoring
Holding throughout (format): in vivo

Experiment [1] relates to Abuthilon theophrasti (ABUTH). Particulars: Abutilon theophrasti, 240 h, read-out: % activity found. The method, then: (§1) Seeds or rhizome pieces of mono- and dicotyledonous harmful and useful plants were placed in peat pots (diameter 4 cm) filled with sandy loam and then covered with soil. The pots were kept in a greenhouse under optimum conditions. In addition, harmful plants encountered in paddy rice cultivation were cultivated in pots with a water level 2 cm above the soil surface.
(§2) About three weeks after the start of the cultivation, the test plants were treated at the 2- to 3-leaf stage. The herbicides, formulated as powder or liquid concentrates, were, either alone or in the combinations according to the invention, sprayed in various dosages on to the green parts of the plants using an application rate of 600 l of water/ha (converted). For further cultivation of the plants, the pots were then again kept under optimum conditions in a greenhouse.
(§3) The visual scoring of the herbicidal effects was carried out in intervals up to 21 days after the treatment. Scoring was carried out in percent in comparison to the untreated control plants. 0%=no herbicidal activity, 100%=complete herbicidal activity=complete kill.
(§4) The percentages from the treatments with the herbicides alone (=individual application) and with the combinations according to the invention (=mixtures) were employed to calculate interactions using the method of Colby. When the observed efficacies of the mixtures exceed the formal sum of the values of the tests with individual applications, they also exceed the expected value according to Colby, which is calculated using the formula below (cf. S. R. Colby; in Weeds 15 (1967) pp. 20 to 22):
(§5) Here: • A, B=activity of components A and B in percent at a dosage of a and b g of ai/ha (=gramm of active substance per hectare), respectively. • E=expected value in % at a dosage of a+b g of ai/ha.

Experiment [2] has as its system Amaranthus retroflexus (AMARE). Particulars: read-out: % activity found; for inhibition at 12 g/ha: A-1 12 g of ai/ha. Here is the method: as §1, §2, §3, §4, §5
Another experiment has as its system Avena fatua (AVEFA). The following applies: read-out: % activity found; for inhibition at 30 g/ha / inhibition at 90 g/ha: AVEFA. Here is the method: as §1, §2, §3, §4, §5
Experiment [3] concerns Cyperus esculentus (CYPES). Particulars: 504 h, read-out: % activity found. The method, then:
as §1, §2, §3, §4, §5

The subject of experiment [4] is Fallopia (ex Polygonum) convolvulus (POLCO). The following applies: read-out: % activity found. The method, then:
as §1, §2, §3, §4, §5

Experiment [5] has as its system Matricaria inodora (MATIN). Particulars: Tripleurospermum inodorum, read-out: % activity found. The method, then: as §1, §2, §3, §4, §5
The test system of a further experiment is Oryza sativa (ORYSA). The following applies: read-out: % activity found; for inhibition at 90 g/ha: ORYSA, B3-3 90 g of ai/ha. Here is the method:
as §1, §2, §3, §4, §5

For experiment [6], the system named is Pharbitis purpurea (PHBPU). The following applies: Ipomoea purpurea, read-out: % activity found; for inhibition at 4 g/ha / inhibition at 12 g/ha: PHBPU; for inhibition at 4 g/ha: A-1 4 g of ai/ha; for inhibition at 12 g/ha: A-1 12 g of ai/ha. Here is the method:
as §1, §2, §3, §4, §5

Experiment [7] deals with Triticum aestivum (TRZAS). The following applies: read-out: % activity found. Here is the method: as §1, §2, §3, §4, §5
In another experiment the test system is Viola tricolor (VIOTR). Particulars: read-out: % activity found. The method, then: as §1, §2, §3, §4, §5
The test system of another experiment is Zea mays (ZEAMX). Particulars: read-out: % activity found; for inhibition at 30 g/ha / inhibition at 90 g/ha: ZEAMX. The method, then: as §1, §2, §3, §4, §5
Experiment [8] relates to Alopecurus myosuroides (ALOMY). Particulars: 504 h, read-out: % activity found. The method, then:
as §1, §2, §3, §4, §5

Experiment [9] deals with Lolium multiflorum (LOLMU). Particulars: read-out: % activity found. The method, then: as §1, §2, §3, §4, §5
The next experiment deals with Setaria viridis (SETVI). The following applies: 504 h, read-out: % activity found. The method, then: as §1, §2, §3, §4, §5
[10] abbreviates: 240 h, 10 DAT, B3-1 30 g of ai/ha.
[11] abbreviates: 240 h, 10 DAT, B3-1 90 g of ai/ha.
[12] abbreviates: 504 h, 21 DAT, B3-3 30 g of ai/ha.
Where [13] appears, read: 504 h, 21 DAT, B3-3 90 g of ai/ha.

Where two headings read alike, the source gives them in different places.

Regarding `CCSC(C)CC1CC(=O)C(/C(CC)=N/OC/C=C/Cl)=C(O)C1` (racemic) [B2-3, (E,E)-(±)-2-[1-[[(3-chloro-2-propenyl)oxy]imino]propyl]-5-[2-(ethylthio)propyl]-3-hydroxy-2-cyclohexen-1-one], the inhibition at 20 g/ha turned out to be 0% in [1]; 0% in experiment [2] (240 h); 0% in experiment [2] (504 h); 50% in the experiment on Avena fatua (AVEFA) (504 h); 0% in experiment [3]; 0% in [4] (240 h). Besides, the inhibition at 20 g/ha in experiment [4] (504 h) turned out to be 0%; in [5] (504 h), 0%; in the experiment on Oryza sativa (ORYSA) (240 h) it was 90%; in the experiment on Oryza sativa (ORYSA) (504 h), 95%; in [6] (240 h), 0%; in [6] (504 h), 0%. For the same molecule, the inhibition at 20 g/ha in experiment [7] (240 h) was found to be 40%; in the experiment with Viola tricolor (VIOTR) (240 h), 0%; in the experiment with Viola tricolor (VIOTR) (504 h), 0%. The inhibition at 60 g/ha in [1], in experiment [2] (240 h), in experiment [2] (504 h), in [3], in experiment [4] (240 h) and in experiment [4] (504 h) was 0% each time. Further, the inhibition at 60 g/ha (in experiment [5] (240 h); in experiment [5] (504 h); in experiment [6] (240 h); in experiment [6] (504 h); in the experiment with Viola tricolor (VIOTR) (240 h); with Viola tricolor (VIOTR) (504 h)) was 0% in each case. Further, the inhibition at 60 g/ha in the experiment on Zea mays (ZEAMX) (240 h) came to 80%.
Consider `COc1nc(OC)nc(C(=O)c2cccc(F)c2N(C)S(=O)(=O)C(F)F)n1` [A-1], for which the inhibition at 4 g/ha in [1] (ABUTH, 10 DAT, A-1 4 g of ai/ha) was 70%; in [2] (504 h, AMARE, 21 DAT, A-1 4 g of ai/ha), 70%; in [4] (240 h, POLCO, 10 DAT, A-1 4 g of ai/ha), 70%; in experiment [5] (240 h, MATIN, 10 DAT, A-1 4 g of ai/ha), 60%; in experiment [6] (240 h, 10 DAT) it was 60%; in experiment [6] (504 h, 21 DAT), 60%. The inhibition at 12 g/ha in experiment [1] (ABUTH, 10 DAT, A-1 12 g of ai/ha) came to 70%; in experiment [2] (240 h, AMARE, 10 DAT), 70%; in experiment [2] (504 h, AMARE, 21 DAT), 75%; in experiment [4] (240 h, POLCO, 10 DAT, A-1 12 g of ai/ha), 70%; in experiment [6] (240 h, 10 DAT) it was 60%; in experiment [6] (504 h, 21 DAT), 65%. Besides, the inhibition at 12 g/ha in the experiment on Viola tricolor (VIOTR) (240 h, VIOTR, 10 DAT, A-1 12 g of ai/ha) was determined as 20%.
As to `CS(=O)(=O)c1ccc(C(=O)C2C(=O)CCCC2=O)c([N+](=O)[O-])c1` [B3-1, 2-[4-(methylsulfonyl)-2-nitrobenzoyl]-1,3-cyclohexanedione], the inhibition at 30 g/ha was determined as 0% in [8] (ALOMY, 21 DAT, B3-1 30 g of ai/ha); 0% in the experiment on Avena fatua (AVEFA) (setting [10]); 0% in the experiment on Avena fatua (AVEFA) (504 h, 21 DAT, B3-1 30 g of ai/ha); 30% in [9] (240 h, LOLMU, 10 DAT, B3-1 30 g of ai/ha); 0% in experiment [9] (504 h, LOLMU, 21 DAT, B3-1 30 g of ai/ha); 0% in the experiment on Setaria viridis (SETVI) (SETVI, 21 DAT, B3-1 30 g of ai/ha). Besides, the inhibition at 30 g/ha in the experiment on Zea mays (ZEAMX) (setting [10]) was determined as 0%. For the same molecule, the inhibition at 90 g/ha in [8] (ALOMY, 21 DAT, B3-1 90 g of ai/ha) was found to be 30%; in the experiment with Avena fatua (AVEFA) (setting [11]), 0%; with Avena fatua (AVEFA) (504 h, 21 DAT, B3-1 90 g of ai/ha), 0%; in the experiment with Setaria viridis (SETVI) (SETVI, 21 DAT, B3-1 90 g of ai/ha), 20%; in [7] (504 h, TRZAS, 21 DAT, B3-1 90 g of ai/ha), 30%; in the experiment with Zea mays (ZEAMX) (setting [11]), 20%.
Regarding `CS(=O)(=O)c1ccc(C(=O)C2C(=O)CCCC2=O)c(Cl)c1` [B3-2, 2-[2-chloro-4-(methylsulfonyl)benzoyl]-1,3-cyclohexanedione], the inhibition at 70 g/ha (in experiment [8]; with Avena fatua (AVEFA) (240 h); in the experiment on Avena fatua (AVEFA) (504 h); in [9] (504 h); in the experiment on Setaria viridis (SETVI); with Zea mays (ZEAMX) (240 h)) was 0% in each case. For the same molecule, the inhibition at 70 g/ha in the experiment on Zea mays (ZEAMX) (504 h) amounted to 0%. The inhibition at 210 g/ha in [8] stood at 20%; in the experiment on Avena fatua (AVEFA) (504 h), 0%; in the experiment on Setaria viridis (SETVI) it was 20%; in the experiment with Zea mays (ZEAMX) (240 h), 0%; with Zea mays (ZEAMX) (504 h), 0%.
As to `CS(=O)(=O)c1ccc(C(=O)C2C(=O)CCCC2=O)c(Cl)c1COCC(F)(F)F` [B3-3, 2-[2-chloro-4-(methylsulfonyl)-3-[(2,2,2-trifluoroethoxy)methyl]benzoyl]-1,3-cyclohexanedione], the inhibition at 30 g/ha amounted to 40% in [8] (ALOMY, 21 DAT, B3-3 30 g of ai/ha); 0% in the experiment with Avena fatua (AVEFA) (setting [12]); 20% in experiment [9] (504 h, LOLMU, 21 DAT, B3-3 30 g of ai/ha); 50% with Setaria viridis (SETVI) (SETVI, 21 DAT, B3-3 30 g of ai/ha); 0% in the experiment with Zea mays (ZEAMX) (240 h, 10 DAT, B3-3 30 g of ai/ha); 0% in the experiment with Zea mays (ZEAMX) (setting [12]). For the same molecule, the inhibition at 90 g/ha in the experiment with Avena fatua (AVEFA) (setting [13]) was 0%; in experiment [9] (504 h, LOLMU, 21 DAT, B3-3 90 g of ai/ha), 50%; in the experiment with Oryza sativa (ORYSA) (240 h, 10 DAT), 40%; in the experiment on Oryza sativa (ORYSA) (504 h, 21 DAT), 30%; with Zea mays (ZEAMX) (240 h, 10 DAT, B3-3 90 g of ai/ha), 0%; with Zea mays (ZEAMX) (setting [13]), 0%.
